Experimental data reported in a melting point compilation (Tetko et al.; mined from patent text by program, amines drawn as free bases though some values may be those of a salt).

Structure (SMILES)	melting point [°C]
O=C(O)Cc1c(Oc2ccccc2)cccc1Oc1ccccc1	32 to 38
CN1C(=O)C(NC(=O)Nc2cccc(I)c2)N=C(N2CC3CCC(CC3)C2)c2ccccc21 (single isomer, unassigned; (+))	220 to 222
O=C1NC(=O)C(F)(c2ccccc2)CO1 (centres undefined)	115 to 117
CC(=O)Oc1c(C(C)(C)C)cc(CCCO)cc1C(C)(C)C	93 to 95
O=C1CCCCC1n1nc(-c2c(-c3ccccc3)nn3ccccc23)ccc1=O (centres undefined)	166 to 168
CCC(CC)c1ccc(Cl)c2nc3n(c12)CCN3C(=O)c1c(C)cc(C)cc1C	234 to 236
C=CCC(C(N)=O)C(CC(C)C)C(=O)NC1N=C(c2cccnc2)c2ccccc2N(C)C1=O (centres undefined)	251 to 253
CC(C)Oc1ccc(C(=O)NCCN2CCC(Oc3ccc(Cl)c(Cl)c3)CC2)cc1	113 to 115
COC(=O)CN(c1ccccc1C)S(=O)(=O)c1ccccc1C(=O)c1cc(OC)c2c(c1)OCO2	159 to 170
C=C(C)OC(=O)N1c2cnccc2NC(=O)C1C (racemic)	236
O=C(NCCc1ccc(O)cc1)c1ccc2n1Cc1ccccc1N(C(=O)CSc1ccc(Br)cc1)C2	168 to 169
CCN(CC)CCOc1ccc(Nc2ncc3c(n2)NC(=O)N(c2c(Cl)cccc2Cl)C3)cc1	248
CCC(COC)Nc1nc(C)nc(N2CCc3cc(OC)cc(Cl)c32)c1C=O (centres undefined)	150 to 153
CC(=O)NCCCSc1c(Cc2cccc3ccccc23)sc2c1c(=O)n(C)c(=O)n2CC(C)C	114 to 117
O=[N+]([O-])c1ccc(C=Cc2nc(Nc3ccccc3)c3ccccc3n2)o1	183
O=C(CCCN1CCN(c2cccc(Cl)c2)CC1)N1CCc2ccccc21	102 to 107
CNC(=O)c1ccc(N2CCN(Cc3cnc4c(c3)[nH]c(=O)n3cccc43)CC2)c(F)c1	288 to 294
COc1cc2c(c(Cl)c1Cl)C(=O)CC2	154 to 156
CC(C)[C@@H](C(=O)N[C@@H](Cc1ccccc1)[C@@H](O)[C@H](O)[C@H](Cc1ccccc1)NC(=O)[C@H](C(C)C)N(C)C)N(C)C	200 to 204
CCn1cc(C(=O)O)c(=O)c2cc(F)c(N3CC(CNC)C3)nc21	180 to 182
O=Cc1ccc(O)c2oc3ccc([N+](=O)[O-])cc3c12	> 270
CN(C)C(=O)ON=C1COCS1	87.5 to 88
CN1C(=O)NC(=O)CC1c1ccccc1 (centres undefined)	155 to 156

Structure (SMILES)	melting point [°C]
CC(C)N(C(=O)CN1C(=O)CC(=O)N(c2ccccc2)c2ccccc21)c1ccc(C(F)(F)F)cc1	186 to 188
Fc1cccc(OC2CN(C(c3ccccc3)c3ccccc3)C2)c1	81 to 82
Cc1nc(Cl)c2c(c1O)COC2(C)c1ccccc1 (centres undefined)	246
NCCNc1cnnc(N)n1	186 to 191
COc1cc(-c2ccc(O)c(C3(C)CCCCC3)c2)cc(C=C2SC(N(C)C)=NC2=O)c1O	277 to 279
COC(=O)c1ccc(CCCO)c(C23CC4CC(CC(C4)C2)C3)c1	77
C=CCc1c(O)c(=O)[nH]c2ccccc2c1=O	174 to 175
CCn1cc(C(=O)O)c(=O)c2cc(F)c(N3CCN4CCC3CC4)c(F)c21	261 to 263
CC(=O)OCCCc1cc(C=C2SCN(C)C2=O)cc(CCCOC(C)=O)c1O	112 to 116
O=S(=O)(CC=C1CCCC1)c1ccccc1	68
CN1C(=O)C2(COc3cc4c(cc32)OCCO4)c2c(NC(=O)C3CC3)cccc21 (centres undefined)	266 to 268
O=Cc1ccc(-c2cc(-c3c(-c4ccccn4)nc4ccccn34)ccn2)cc1	216 to 218
C[C@H](Nc1ncnc2[nH]cnc12)c1oc2ccccc2c(=O)c1-c1ccccc1	135 to 138
COc1ccc(/C(=C\C=C\C(=O)Oc2ccc([N+](=O)[O-])cc2)c2cccnc2)cc1	54 to 56
COC(=O)c1ccc(OC(=O)CCCCCCCCC(=O)Oc2ccc(C(=O)OC)cc2)cc1	110
CC(C)c1cccc(C(C)C)c1NC(=O)CN1CCN(CCSc2nc3cccc(S(C)(=O)=O)c3o2)CC1	125 to 128
COCCNC(=O)c1cccc(-c2cccc3cc(Cc4ccc(F)c(OC)c4)sc23)c1	70 to 71
CCN(CC)C(=O)c1ccc2ccccc2c1-c1cccc(COC(C)(C)C)c1	117 to 119
S=C=NCc1ccc(Cl)nc1	22
Cc1ccc(Sc2cncc3sc(C(N)=O)cc23)cc1C	192 to 194
c1ccc(COc2cnc(N3CCNCC3)nc2)cc1	94 to 97
C=CCN1C(=O)C[N+]([O-])=C(c2ccccc2F)c2cc(Cl)ccc21	183
C[C@H](NC(=O)OC(C)(C)C)C(=O)OCC(C)(C)Nc1cccc2c1C(=O)c1ccccc1C2=O	120

Structure (SMILES)	melting point [°C]
CC(C)Oc1cccc(=O)n1O	119 to 120
CCCC[C@H](NC(=O)[C@H](CC(C)C)NC(=O)OCc1ccc(C#N)cc1)C(=O)CSCc1ccco1	83 to 89
COc1ccc(Cl)cc1C(=O)N(CCCC(=O)O)c1ccc(OC)c(-c2ccccc2)c1	155 to 156
N#Cc1ccc(Cc2ccc(OCC3CCCCC3)cc2)cc1	104 to 106
O=C(OC1c2nccnc2C(=O)N1c1ccc(Cl)cn1)N1CCNCC1 (centres undefined)	205
COc1ccc2cccc(Cc3ccccc3)c2c1O	67 to 71
COc1ccc(Nc2nc(C)c(-c3nc4ccccc4c(=O)n3-c3ccc(Cl)cc3)s2)cc1	> 275
CCS(=O)(=O)Nc1cc(Cc2c[nH]cn2)ccc1C	140 to 152
O=C1Nc2ccc(Cl)cc2C(c2ccc3[nH]c(=O)n(CCCO)c3c2)=N[C@H]1Cc1ccccc1Cl	210
CC(=O)c1ccc2cc(N3CCN(C(=O)OC(C)(C)C)CC3)ccc2c1	153 to 154
O=c1[nH]c2[nH]c3ccc(Cl)cc3c2c2ccccc12	> 300
Cc1noc(NS(=O)(=O)c2ccc(NCCc3ccccc3)cc2-c2ccc(CC(C)C)cc2)c1C	68 to 71
Cc1ccc(C2COc3c(C)c(C)c(Br)c(C)c32)nc1 (centres undefined)	105 to 106
CC1(C)Cc2cc([N+](=O)[O-])cc(O)c2O1	96 to 97
Cc1cc(Nc2cc(-c3cccc(N4CCc5c(cc6n5CCCC6)C4=O)c3CO)cn(C)c2=O)n[nH]1	199 to 200
CCOC(=O)C(=O)N(c1ccccc1)c1cc(OC)c([N+](=O)[O-])cc1OC	146 to 147
Nc1cc(N)c(SCCO)cc1SCCO	144
CCCCc1nc(Cl)c(CO)n1Cc1ccccc1Cl	134 to 135
CCOCc1nc2c(N)nc3ccc(OCc4ccccc4)cc3c2n1CCCCNS(C)(=O)=O	182 to 185
CC1=C(N2CC2)C(=O)c2c([nH]c(C)c2C)C1=O	251 to 253
O=C(NOC(=O)c1ccccc1)OCc1ccccc1	112
Cc1ccccc1N=NC1=NCCS1	79 to 80

Other lines, results leading:

melting point [°C]	Structure (SMILES)
123 to 125	COC(=O)c1ccc(-c2c(C(=O)N(C)Cc3cc(C(F)(F)F)cc(C(F)(F)F)c3)n(C)c(=O)c3ncccc23)cc1
104 to 106	CCC(=O)CS(=O)(=O)c1ccc(OS(=O)(=O)c2ccc(C)cc2)cc1
180	CC(C)(O)c1ccc(-c2ccc(N3C[C@H](Cn4ccnn4)OC3=O)cc2F)cn1
94	CCCCc1ccc(-c2ccc(OCC(C)CC)nn2)cc1 (centres undefined)
100	CN(C)c1ccccc1SCc1noc(-c2ccccc2)n1
240 to 241	CP(=O)(O)C(O)C(CN)c1ccc(Cl)cc1 (centres undefined)
66 to 68	Cc1ccccc1OCC1NCCS1 (centres undefined)
104 to 106	Cc1ccnc(-c2ccc(CBr)cc2)n1
306	COc1cc(C(=O)c2ncc3ccc(C(=O)O)cn23)ccc1N
162	CCn1c(C)nc2cc(C#N)ccc21
98 to 101	Oc1ccc(-c2cccc(Cl)c2)cc1
148 to 150	CCCCN(Cc1ccc(-c2ccccc2-c2nnn[nH]2)cc1)c1nc(C)cc(C)n1
235 to 238	CCNc1nc2ccccc2n2c(CC)nnc12
194 to 195	Nc1nc(-c2ccccc2)c(CCO)c2ncnn12
108 to 109	O=Cc1ccc(-c2ccc(Br)cc2)nc1
68 to 75	COC(=O)C(c1ccc(OCCNC(=O)C2Cc3ccccc3N2S(=O)(=O)c2ccc(-c3cc(C(F)(F)F)ccc3Cl)cc2)cc1)C(C)C (centres undefined)

melting point [°C]	Structure (SMILES)
99.5 to 102	CN(C)CCNc1cc(Cl)nc(-c2ccc(Cl)c(Cl)c2)n1
157 to 158	COc1ccc(-c2csc(Nc3ccc(C)cn3)n2)c(OC)c1
294 to 295	Cn1c(=O)c(=O)[nH]c2ccc3ccccc3c21
95.5 to 97	O=C(Cc1ccccc1NS(=O)(=O)C(F)(F)F)N1CCOCC1
105 to 106	CCCc1nn(-c2ccc(C(F)(F)F)cn2)cc1CCCOc1nn(CC)cc1CC(=O)O
90 to 90.5	COC(=O)c1ccc(OCc2ccccc2)cn1
112 to 113	CCOc1ccc(-c2nc(-c3ccc(OS(=O)(=O)C(F)(F)F)c(C(=O)OC)c3)cs2)cc1OCC
151 to 152	CCOc1nnc(-c2ccc(C(F)(F)F)cc2)[nH]1
186 to 187	CCCCc1nn(-c2ccccc2C(F)(F)F)c(=O)n1Cc1ccc(-c2ccccc2S(=O)(=O)Nc2ccc([N+](=O)[O-])cc2)cc1
84 to 85	Cc1oc(-c2ccc(C(F)(F)F)cc2)nc1CCl
218 to 219	Oc1ccc(-c2cc3ccccc3cn2)cc1
192 to 194	CCOc1cc(Cc2cnc(N)nc2N)cc(OCC)c1N
148 to 149	CC(C)(C)OC(=O)c1ccc(N2CC(CO)OC2=O)cc1F (centres undefined)
102 to 104	Cn1c(C(F)(F)F)cc(=O)n(-c2ccc(Cl)c3nc(N4CCCCC4)sc23)c1=O
104	CCOP(=O)(Cc1c2ccccc2cc2ccccc12)OCC
